Data published in PubChem BioAssay (NCI).
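1) Cells in 96-well plates. 2) Compound, 48 h, 5 concentrations. 3) Linear interpolation between surrounding doses. 4) Unreached endpoint = highest concentration. The concentration for 50% growth inhibition is given as GI50. TGI: concentration producing complete growth inhibition.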

Test system: MDA-MB-468 breast
Experiment: NCI-60 cell line screen, 48 h

SMILES	GI50	TGI
Clc1ccc(N2N=C(c3cccc(Nc4ccncc4)c3)CC2c2ccc3c(c2)OCO3)cc1 (stereo unspecified)	1590 nM	3080 nM
CCCCCCCNc1nc(C(=O)OCC)ncc1-c1ccc(C(F)(F)F)cc1	23400 nM	93100 nM
COc1ccccc1/C=C/[N+](=O)[O-]	1650 nM	3600 nM
COc1ccc(Nc2ncc(Br)c(NCCCNC(=O)C3CCC3)n2)cc1	15400 nM	37000 nM
O=C(/C=C/C12c3ccccc3C(c3ccccc31)C1C(=O)N(c3ccccc3)C(=O)C12)c1ccccc1 (stereo unspecified)	1870 nM	7710 nM
CCN(CC)CCNc1ccc([N+](=O)[O-])c2sc3ccccc3c(=O)c12	1450 nM	5070 nM
O=C(Nc1ccccc1)Nc1nc2ccc([N+](=O)[O-])cc2s1	755 nM	4450 nM
Oc1ccc(C(c2ccc(O)cc2)c2ccc(Cl)cn2)cc1	116 nM	577 nM
COc1ccc(-c2nc3sc(-c4ccc(Cl)cc4)cn3n2)cc1	2080 nM	> 50000 nM
COc1ccc2c(c1)c(CC(=O)[Se]CC#N)c(C)n2C(=O)c1ccc(Cl)cc1	1200 nM	3200 nM
CCc1n(Cc2ccc3ccccc3n2)cc[n+]1Cc1ccc2ccccc2n1	–	99.4 nM
O=[N+]([O-])c1ccc(S(=O)Cc2ccccc2)c([N+](=O)[O-])c1 (stereo unspecified)	1700 nM	3130 nM
CC(=O)N(O)CCCCCNC(=O)CCC(=O)N(O)CCCCCNC(=O)CCC(=O)N(O)CCCCCN(CCCCCCCCCC[P+](c1ccccc1)(c1ccccc1)c1ccccc1)CCCCCCCCCC[P+](c1ccccc1)(c1ccccc1)c1ccccc1	1680 nM	5410 nM
CN1CCN(c2ccc(NC(=O)c3nc4ccc5[nH]ncc5c4c4c3CCCC4)cc2C(F)(F)F)CC1	859 nM	1980 nM
CC[C@@]1(O)C[C@H](OC2CC(N(C)C)C(OC3CC(O)C(OC4CCC(=O)C(C)O4)C(C)O3)C(C)O2)c2c(cc3c(c2O)C(=O)c2c(O)cccc2C3=O)[C@H]1C(=O)OC (stereo partly specified)	17 nM	123 nM
C=CCN(/C=C1/C(=O)O[C@H](COC)[C@@]2(C)C1=C(O)C(=O)C1=C2[C@H](OC(C)=O)C[C@]2(C)C(=O)CC[C@@H]12)CC=C	101 nM	779 nM
O=C1C(c2c[nH]c3ccccc23)=C(c2c[nH]c3ccccc23)C(=O)N1O	> 25000 nM	> 25000 nM
Cc1cc(/C=C\c2ccc3ccccc3[n+]2C)c(O)c2ncccc12	316 nM	2230 nM
CC1(C)CC[C@H](Nc2ncc(C(F)(F)F)c(-c3c[nH]c4c(P(C)(C)=O)c(C#N)ccc34)n2)CN1	1220 nM	5110 nM
FC(F)(F)c1cc(-c2nnc3n2N=C(N2CCCC2)CS3)cc(C(F)(F)F)c1	32000 nM	> 50000 nM
CCC(=O)O[C@H]1CC[C@H]2[C@@H]3CC[C@H]4CC(=O)[C@H](C)C[C@]4(C)[C@H]3CC[C@]12C	33900 nM	> 100000 nM
